Here are results for 30 compounds from ChEMBL document CHEMBL1149183, “Novel benzo[1,4]diazepin-2-one derivatives as endothelin receptor antagonists” (J Med Chem, 2004).

Assay [1] deals with T1, Endothelin receptor type B (Homo sapiens, UniProt P24530).
T1 sequence (P24530 whole entry): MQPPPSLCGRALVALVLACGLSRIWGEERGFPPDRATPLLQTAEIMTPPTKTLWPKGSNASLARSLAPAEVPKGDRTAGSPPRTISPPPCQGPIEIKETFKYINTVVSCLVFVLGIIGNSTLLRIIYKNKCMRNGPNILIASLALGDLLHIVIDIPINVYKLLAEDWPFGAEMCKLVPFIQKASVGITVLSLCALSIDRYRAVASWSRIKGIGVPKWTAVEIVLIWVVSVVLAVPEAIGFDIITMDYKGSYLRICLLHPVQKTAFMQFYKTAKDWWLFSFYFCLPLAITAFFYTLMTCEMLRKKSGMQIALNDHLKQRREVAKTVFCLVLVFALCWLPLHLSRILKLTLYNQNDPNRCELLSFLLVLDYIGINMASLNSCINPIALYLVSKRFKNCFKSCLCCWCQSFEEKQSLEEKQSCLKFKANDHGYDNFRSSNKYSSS
The assay can be described thus: Antagonist activity towards human recombinant Endothelin B receptor expressed in chinese hamster ovary (CHO) cells determined using [125I]ET1 as radioligand. In kind it is functional, cell-based.

For a further assay, the target named is T2, Endothelin-1 receptor (Homo sapiens, UniProt P25101).
T2 sequence (P25101 whole entry): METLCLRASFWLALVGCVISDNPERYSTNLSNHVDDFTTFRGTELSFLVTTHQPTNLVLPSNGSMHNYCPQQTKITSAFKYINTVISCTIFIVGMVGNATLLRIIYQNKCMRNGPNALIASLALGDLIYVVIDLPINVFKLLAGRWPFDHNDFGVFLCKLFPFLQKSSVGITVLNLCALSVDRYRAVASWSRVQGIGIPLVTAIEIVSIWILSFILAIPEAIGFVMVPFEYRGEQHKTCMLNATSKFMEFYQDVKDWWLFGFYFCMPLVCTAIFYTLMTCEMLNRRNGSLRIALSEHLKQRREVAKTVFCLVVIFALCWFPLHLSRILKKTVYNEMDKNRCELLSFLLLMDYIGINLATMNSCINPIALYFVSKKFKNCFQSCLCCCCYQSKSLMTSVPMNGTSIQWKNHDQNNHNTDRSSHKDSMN
The assay can be described thus: Antagonist activity towards human recombinant Endothelin A receptor expressed in chinese hamster ovary (CHO) cells determined using [125I]ET1 as radioligand. Type of assay: functional, cell-based.

The next assay deals with T3, Endothelin receptor (Rattus norvegicus, UniProt P26684+P21451).
T3 sequence (P26684 whole entry): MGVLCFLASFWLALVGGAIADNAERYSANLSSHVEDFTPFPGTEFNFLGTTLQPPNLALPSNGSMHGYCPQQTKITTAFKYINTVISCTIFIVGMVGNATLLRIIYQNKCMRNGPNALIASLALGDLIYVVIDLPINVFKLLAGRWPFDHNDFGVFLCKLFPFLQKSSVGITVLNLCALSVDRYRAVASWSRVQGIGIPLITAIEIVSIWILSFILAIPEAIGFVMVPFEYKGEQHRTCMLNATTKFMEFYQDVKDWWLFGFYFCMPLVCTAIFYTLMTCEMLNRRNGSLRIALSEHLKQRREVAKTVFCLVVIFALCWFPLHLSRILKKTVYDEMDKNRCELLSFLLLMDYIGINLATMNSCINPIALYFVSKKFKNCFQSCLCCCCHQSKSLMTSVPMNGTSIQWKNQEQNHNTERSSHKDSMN
T3 sequence (P21451 whole entry): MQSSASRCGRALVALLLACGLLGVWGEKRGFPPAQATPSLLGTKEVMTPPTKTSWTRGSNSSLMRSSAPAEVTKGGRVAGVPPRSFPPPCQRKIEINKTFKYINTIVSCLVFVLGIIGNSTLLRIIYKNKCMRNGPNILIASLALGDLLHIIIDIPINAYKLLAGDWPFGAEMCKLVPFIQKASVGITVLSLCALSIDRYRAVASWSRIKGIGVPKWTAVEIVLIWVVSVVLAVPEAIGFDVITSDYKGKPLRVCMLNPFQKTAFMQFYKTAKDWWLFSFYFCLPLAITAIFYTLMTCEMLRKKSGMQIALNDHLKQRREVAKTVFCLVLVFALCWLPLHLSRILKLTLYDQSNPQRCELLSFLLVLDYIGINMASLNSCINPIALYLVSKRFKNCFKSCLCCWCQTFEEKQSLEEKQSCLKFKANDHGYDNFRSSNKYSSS
The assay can be described thus: Inhibitory potency at native endothelin A and endothelin B receptors by inhibiting endothelin-1 contractions of rat aortic rings. In kind it is functional.

The structures appear in SMILES notation.

For the compound `Cc1cc(C)nc(O[C@H](C(=O)O)[C@@]2(c3ccccc3)NCC(=O)N(Cc3ccc(F)c(F)c3F)c3ccccc32)n1` (racemic), the IC50 came out at 49.7 nM in assay [1] and 6.5 nM at Endothelin-1 receptor. Moreover, the pA2 at Endothelin receptor was found to be 7.93.

On to `Cc1cc(C)nc(O[C@H](C(=O)O)[C@@]2(c3ccccc3)NCC(=O)N(Cc3c(F)cccc3Cl)c3ccccc32)n1` (racemic), for which the IC50 in assay [1] was 10.9 nM. The compound further had a pA2 on Endothelin receptor of 7.8.

On to `CCc1cccc([C@]2([C@H](Oc3nc(C)cc(C)n3)C(=O)O)NCC(=O)N(Cc3ccc(OC)cc3)c3ccccc32)c1` (racemic), for which the IC50 in assay [1] came out at 68 nM; on Endothelin-1 receptor, 3.1 nM. In addition, on Endothelin receptor, the pA2 was 7.55.

Turning to `COc1ccc(CN2C(=O)CN[C@](c3cccc(C)c3)([C@H](Oc3nc(C)cc(C)n3)C(=O)O)c3ccccc32)cc1` (racemic), the IC50 in assay [1] came to 50.7 nM; on Endothelin-1 receptor, 6.3 nM. Moreover, the pA2 on Endothelin receptor is recorded as 6.32.

Regarding `Cc1cc(C)nc(O[C@H](C(=O)O)[C@@]2(c3ccccc3)NCC(=O)N(Cc3ccc(F)cc3)c3ccccc32)n1` (racemic), the values for the IC50 (in assay [1]; on Endothelin-1 receptor) were 49.7 nM and 5.9 nM, respectively. The pA2 on Endothelin receptor is 7.46.

Consider `COc1ccc(CN2C(=O)CN[C@](c3cccc(-c4ccccc4)c3)([C@H](Oc3nc(C)cc(C)n3)C(=O)O)c3ccccc32)cc1` (racemic), for which the half-maximal inhibitory concentration (IC50) in assay [1] was found to be 86.8 nM; at Endothelin-1 receptor, 3 nM. Further, the pA2 at Endothelin receptor is 7.28.

In the case of `Cc1cc(C)nc(O[C@H](C(=O)O)[C@@]2(c3ccccc3)NCC(=O)N(Cc3c(F)c(F)c(F)c(F)c3F)c3ccccc32)n1` (racemic), the IC50 stood at 28.8 nM in assay [1] and 6.8 nM at Endothelin-1 receptor. The compound also returned a pA2 at Endothelin receptor of 7.87.

On to `Cc1cc(C)nc(O[C@H](C(=O)O)[C@@]2(c3ccccc3)NCC(=O)N(Cc3c(F)cccc3F)c3ccccc32)n1` (racemic), for which the IC50 in assay [1] was 17.7 nM; on Endothelin-1 receptor, 1.1 nM. In addition, the pA2 at Endothelin receptor stood at 7.83.

As for `CCCCc1ccc(CN2C(=O)CN[C@](c3ccccc3)([C@H](Oc3nc(C)cc(C)n3)C(=O)O)c3ccccc32)cc1` (racemic), the 50% inhibitory concentration (IC50) in assay [1] was found to be 11.1 nM; at Endothelin-1 receptor, 3.5 nM. The compound further had a pA2 on Endothelin receptor of 7.84.

Take `Cc1cc(C)nc(O[C@H](C(=O)O)[C@@]2(c3ccccc3)NCC(=O)N(CCO)c3ccccc32)n1` (racemic): the 50% inhibitory concentration (IC50) in assay [1] turned out to be 108 nM; on Endothelin-1 receptor it was 6.9 nM. Further, the pA2 at Endothelin receptor was found to be 6.79.

As to `Cc1cc(C)nc(O[C@H](C(=O)O)[C@@]2(c3ccccc3)NCC(=O)N(Cc3ccccc3)c3ccccc32)n1` (racemic), the IC50 in assay [1] is 47.4 nM; on Endothelin-1 receptor, 6.4 nM. Also, the pA2 on Endothelin receptor stood at 7.32.

Consider `Cc1cc(C)nc(O[C@H](C(=O)O)[C@@]2(c3ccccc3)NCC(=O)N(Cc3c(F)ccc(F)c3F)c3ccccc32)n1` (racemic), for which the figures for the IC50 (in assay [1]; on Endothelin-1 receptor) were 13.2 nM and 2.4 nM, respectively. On Endothelin receptor, this compound gave a pA2 of 8.38.

In the case of `Cc1cc(C)nc(O[C@H](C(=O)O)[C@@]2(c3ccccc3)NCC(=O)N(Cc3ccc(OC(F)(F)F)cc3)c3ccccc32)n1` (racemic), the figures for the IC50 (in assay [1]; on Endothelin-1 receptor) were 32.2 nM and 2.5 nM, respectively. The same compound displayed a pA2 at Endothelin receptor of 7.59.

In the case of `Cc1cc(C)c(CN2C(=O)CN[C@](c3ccccc3)([C@H](Oc3nc(C)cc(C)n3)C(=O)O)c3ccccc32)c(C)c1` (racemic), the concentration for half-maximal inhibition (IC50) was determined as 15.5 nM in assay [1] and 6.7 nM on Endothelin-1 receptor. Also, the pA2 at Endothelin receptor worked out at 8.1.

On to `CCCCc1cccc([C@]2([C@H](Oc3nc(C)cc(C)n3)C(=O)O)NCC(=O)N(Cc3ccc(OC)cc3)c3ccccc32)c1` (racemic), for which the results for the IC50 (in assay [1]; at Endothelin-1 receptor) were 36.5 nM and 7.9 nM, respectively. At Endothelin receptor, this compound showed a pA2 of 7.69.

For `COC(=O)c1ccc(CN2C(=O)CN[C@](c3ccccc3)([C@H](Oc3nc(C)cc(C)n3)C(=O)O)c3ccccc32)cc1` (racemic), the concentration for half-maximal inhibition (IC50) was 70.3 nM in assay [1] and 7.4 nM at Endothelin-1 receptor. Moreover, the pA2 at Endothelin receptor turned out to be 6.98.

As to `COc1ccc(CN2C(=O)CN[C@](c3ccccc3)([C@H](Oc3nc(C)cc(C)n3)C(=O)O)c3ccccc32)cc1` (racemic), the IC50 in assay [1] worked out at 22.4 nM. Also, the pA2 at Endothelin receptor stood at 7.08.

With `CCCCCCN1C(=O)CN[C@](c2ccccc2)([C@H](Oc2nc(C)cc(C)n2)C(=O)O)c2ccccc21` (racemic), the half-inhibitory concentration (IC50) in assay [1] was 39.9 nM; at Endothelin-1 receptor, 23.7 nM. Besides, the pA2 at Endothelin receptor was determined as 6.71.

Consider `Cc1cc(C)nc(O[C@H](C(=O)O)[C@@]2(c3ccccc3)NCC(=O)N(Cc3nn[nH]n3)c3ccccc32)n1` (racemic), for which the IC50 was found to be 65.6 nM in assay [1] and 6.6 nM on Endothelin-1 receptor. The compound also showed a pA2 at Endothelin receptor of 6.99.

In the case of `COc1ccc(CN2C(=O)CN[C@](c3ccc(F)c(C)c3)([C@H](Oc3nc(C)cc(C)n3)C(=O)O)c3ccccc32)cc1` (racemic), the concentration for half-maximal inhibition (IC50) in assay [1] was 33.2 nM; on Endothelin-1 receptor, 7.3 nM. At Endothelin receptor, this compound registered a pA2 of 6.53.

Take `Cc1cc(C)nc(O[C@H](C(=O)O)[C@@]2(c3ccccc3)NCC(=O)N(Cc3c(Cl)cccc3Cl)c3ccccc32)n1` (racemic): the 50% inhibitory concentration (IC50) was 6.6 nM in assay [1] and 1.8 nM at Endothelin-1 receptor. Moreover, the pA2 on Endothelin receptor amounted to 8.55.

For the compound `Cc1cc(C)nc(O[C@H](C(=O)O)[C@@]2(c3ccccc3)NCC(=O)N(Cc3ccccc3F)c3ccccc32)n1` (racemic), the 50% inhibitory concentration (IC50) in assay [1] amounted to 33.1 nM; at Endothelin-1 receptor it was 3.5 nM. The pA2 on Endothelin receptor stood at 7.22.

In the case of `Cc1cc(C)nc(O[C@H](C(=O)O)[C@@]2(c3ccccc3)NCC(=O)N(CCc3ccccc3)c3ccccc32)n1` (racemic), the IC50 in assay [1] was 21.5 nM; at Endothelin-1 receptor it was 3.9 nM. The compound also showed a pA2 on Endothelin receptor of 7.46.

As for `COc1ccc(CN2C(=O)CN[C@](C3CCCCC3)([C@H](Oc3nc(C)cc(C)n3)C(=O)O)c3ccccc32)cc1` (racemic), the IC50 in assay [1] came to 105 nM; on Endothelin-1 receptor, 112 nM.

On to `Cc1cc(C)nc(O[C@H](C(=O)O)[C@@]2(c3ccccc3)NCCOc3ccccc32)n1` (racemic), for which the IC50 in assay [1] is 3640 nM; at Endothelin-1 receptor, 69.8 nM.

As to `COc1ccc(CN2C(=O)CN[C@](c3cc(C)cc(C)c3)([C@H](Oc3nc(C)cc(C)n3)C(=O)O)c3ccccc32)cc1` (racemic), the values for the half-inhibitory concentration (IC50) (in assay [1]; at Endothelin-1 receptor) were 761 nM and 278 nM, respectively.

In the case of `Cc1cccc(O[C@H](C(=O)O)[C@@]2(c3ccccc3)NCC(=O)N(Cc3c(Cl)cccc3Cl)c3ccccc32)c1C` (racemic), the IC50 in assay [1] is more than 1000 nM; on Endothelin-1 receptor it was more than 10000 nM.

Consider `Cc1cc(C)nc(O[C@H](C(=O)O)[C@@]2(c3ccccc3)NCC(=O)N(Cc3cc(F)cc(F)c3)c3ccccc32)n1` (racemic), for which the figures for the IC50 (in assay [1]; on Endothelin-1 receptor) were 13.1 nM and 7.9 nM, respectively.

On to `COc1cc(OC)nc(O[C@H](C(=O)O)[C@@]2(c3ccccc3)NCC(=O)N(C)c3ccccc32)n1` (racemic), for which the 50% inhibitory concentration (IC50) was 473 nM in assay [1] and 23.4 nM at Endothelin-1 receptor.

As to `COc1ccccc1O[C@H](C(=O)O)[C@@]1(c2ccccc2)NCC(=O)N(Cc2c(Cl)cccc2Cl)c2ccccc21` (racemic), the figures for the concentration for half-maximal inhibition (IC50) (in assay [1]; at Endothelin-1 receptor) were more than 10000 nM and 5920 nM, respectively.

A word on the IC50: it is the midpoint of a concentration-inhibition curve. In general, pA2 refers to a measure of antagonist potency on a negative log scale. Lower therefore signals a weaker antagonist.
